The values that follow come from patent US20040265940A1, “Amperometer sensor” (priority 2001, published 2004).

Series [1] is described as follows: Potential of oxidation peak at a glassy carbon electrode. It counts as physicochemical. The note with it: pH 6.95 bis-tris buffer, Ag/AgCl/sat. KCl reference electrode.
The conditions of series [2]: cited from earlier work; for Solubility: values obtained from SRC PhysProp Database.
For series [3] the following is noted: versus SCE; cited from earlier work.

Like-named read-outs stand apart in the source and are kept apart here.

Regarding `CC1=CC(=O)C=C(C)C1=O`, the “Eox (potential of oxidation peak)” value in series [1] is 137 mV. In series [2] (in water at 25° C.), the solubility in water is on record as 7888 mgL^−1. Besides, the Solubility in series [2] is recorded as 7.88 E+03 (SRC) mg/L.

Turning to `O=C1C=CC(=O)C=C1` [1,4-benzoquinone, reference compound], the oxidation potential result in series [3] is “approximately +400 mV”. Also, the “Eox (potential of oxidation peak)” value in series [1] is reported as 278 mV. Moreover, the solubility in water in series [2] (in water at 18° C.) is 11,000 mgL^−1. For the same compound, the Solubility in series [2] is on record as 1.11 E+04 (SRC) mg/L.

In the case of `COC1=C(OC)C(=O)C(C)=CC1=O` [2,3-dimethoxy-5-methyl-1,4-benzoquinone], the “Eox (potential of oxidation peak)” value in series [1] was found to be 156 mV. Further, the solubility in water in series [2] (in water at 25° C.) is on record as 11,000 mgL^−1. Further, the Solubility in series [2] is 1.11 E+04 (SRC) mg/L.

Take `COC1=CC(=O)C=C(OC)C1=O` [2,6-dimethoxy-1,4-benzoquinone]: in series [1], the “Eox (potential of oxidation peak)” value stood at 166 mV. Moreover, the solubility in water in series [2] (in water at 25° C.) is recorded as 70,600 mgL^−1. In addition, in series [2], the Solubility is on record as 7.06 E+04 (SRC) mg/L.

Turning to `COC1=CC(=O)C=C(CO)C1=O` [2-hydroxymethyl-6-methoxy-1,4-benzoquinone], in series [1], the “Eox (potential of oxidation peak)” value amounted to 158 mV.

Regarding `O=C1C=CC(=O)C(c2ccccc2)=C1` [Phenyl-1,4-benzoquinone], the “Eox (potential of oxidation peak)” value in series [1] amounted to 229 mV. In series [2] (in water at 25° C.), the solubility in water was 1135 mgL^−1. For the same compound, the Solubility in series [2] was 1.14 E+03 (SRC) mg/L.

`CC1=C(C)C(=O)C(C)=C(C)C1=O` [Tetramethyl-1,4-benzoquinone]: the “Eox (potential of oxidation peak)” value in series [1] was −37 mV. Besides, the solubility in water in series [2] (in water at 25° C.) is given as 443 mgL^−1. The Solubility in series [2] is reported as 4.43 E+02 (SRC) mg/L.
